Laboratory results published in PMC6279743, “A small molecule ApoE4-targeted therapeutic candidate that normalizes sirtuin 1 levels and improves cognition in an Alzheimer’s disease mouse model” (Scientific Reports, 2018).

Experiments:
[1] = test system: APP cleavage products in E4FAD mice; assay: Second oral 56-day study, APP-derived cleavage products in hippocampus; assay type: in vivo; settings: oral 56 days, vs vehicle
Description: (§1) E4FAD mice were 10–12 mo and NTg mice 7–9 mo at the start of the study.
(§2) Mice were euthanized and blood/tissues collected 2 hrs after dosing on Day 56 by the method described above for PK. Hip and FrCx were collected for analysis of SirT1, sAPPα, and Aβ1-42 levels by AlphaLISA. For Aβ1-42 the Perkin Elmer kit AL276C was used. Protein concentrations were determined using the Bradford protein assay. The sAPPα and sAPPβ AlphaLISAs were similar to the SirT1 AlphaLISA (see Supplementary Fig. S3) but the former uses anti-sAPPα antibody AF1168 and 2B3-biotinylated antibodies and the latter an anti-sAPPβ antibody (IBL Cat. #18957) and an anti-N-terminal APP antibody (R&D Systems AF1168) instead of anti-SirT1 antibodies. Brain tissue and plasma were sent to IAS for A03 level analysis.

[2] = Brain compound levels 2 hours after the last dose in efficacy studies; assay type: in vivo, mice
Description: Mice were euthanized and blood/tissues collected 2 hrs after dosing on day 28 by the method described above for PK. Frontal and parietal cortices (FrCx and PtCx, respectively), as well as the remaining brain tissue, from individual mice were dissected, snap frozen on dry ice, and stored at −80 °C. Plasma samples and the brain tissue minus the FrCx and PtCx (the ‘rest’) from all compound-treated mice were sent to IAS for compound level analysis as described above.
Mice were euthanized and blood/tissues collected 2 hrs after dosing on Day 25 by the method described above for PK. FrCx, PtCx, and hippocampi (Hip) were collected from all mice for SirT1 and sAPPα level determination by AlphaLISA. Protein concentration was determined using a Bradford protein assay. Brain and plasma levels of A03 were determined at IAS.
as §2

E4FAD mice [3] = assay: Y maze Forced Alternation in 56-day study; assay type: in vivo; settings: minute 1 or by 5 minutes
Description: Study mice also underwent Forced Alternation (FA) tests in a Y maze apparatus[74],[75]. Details of the method can be found in Supplementary Methods. Briefly, individual test mice are prevented from entering one of three arms of the maze in the first 5 minute trial and after 30 minutes is returned to maze wherein the blocked arm is available. Time in Novel Arm C [%] was defined as the time spent in the novel arm divided by the time spent in all arms during the first minute.
A small molecule ApoE4-targeted therapeutic candidate that normalizes sirtuin 1 levels and Improves cognition in an Alzheimer’s disease mouse model
(§3) Jesus Campagna, Patricia Spilman, Barbara Jagodzinska, Dongsheng Bai, Asa Hatami, Chunni Zhu, Tina Bilousova, Michael Jun, Chris Jean Elias, Johnny Pham, Gregory Cole, Mary Jo LaDu, Michael E. Jung, Dale E. Bredesen, and […]
Confirmation assay in A172-E4 cells. […]
Cells were incubated with the compound for 60 hrs, then cell culture medium (for sAPPα) and cells (lysates for SirT1) were harvested and levels of sAPPα and SirT1 determined by AlphaLISA. […]
PAMPA. […] The parameters determined are Tr = retention time of compound; KIAM= (Tr-T0)/T0; T0= is the delay time of the column, determined by use of 100 µg/mL citric acid) and was T0= 1.24 min; and (KIAM/MW4)*10-(10). […]
Forced Alternation. […] An arm entry was recorded when all 4 paws of the mouse entered the arm. […]

[4] = test system: sAPPα levels in A172-E4 cells; assay: Confirmation assay in A172-E4 cells, sAPPα AlphaLISA; assay type: cell-based, human; settings: 50 μM A03 vs DMSO, cell culture medium
Description: as §3
Confirmation assay in A172-E4 cells. Befo re transfection, A172 human glioblastoma cells were cultured in Dulbecco’s Modified Eagle Medium (DMEM) supplemented with 10% fetal bovine serum and 1% penicillin/streptomycin in a 37 °C incubator in an atmosphere of 5% CO2 in air. The day of transfection, the media was replaced with Opti-MEM reduced serum medium. Transient transfection with human ApoE4 and ApoE3 constructs in pcDNA3 mammalian expression vectors or empty vector (control) was performed in 96-well plates using a 1:1 mixture of two transfection reagents - Lipofectamine 2000 and siPORT amine - in Opti-MEM as previously described13. After 4 hr incubation with transfection reagents, medium was exchanged for fresh […]
Cells were incubated with the compound for 60 hrs, then cell culture medium (for sAPPα) and cells (lysates for SirT1) were harvested and levels of sAPPα and SirT1

E4FAD mice [5] = assay: Toxicity observation and body weights in 56-day study; assay type: in vivo
Text: as §1

[6] = test system: SirT2 levels in N2a-E4 cells; assay: SirT2 sandwich ELISA in N2a-E4 cells; assay type: cell-based, murine; settings: A03 at 5 or 50 μM vs DMSO
N2a-E4 cells = assay: Lysate protein concentration (Bradford assay); assay type: cell-based, murine; settings: A03 at 5 or 50 μM
Description: Compound in medium (50 µL, 2X) was loaded into a 96-well plate, then 4 × 10^4 cells were added to each well; 24 hrs later the medium was removed and cells lysed. Lysate protein concentration was determined using the Bradford assay according to the manufacturer’s instructions. SirT1 was determined in lysates using the SirT1 AlphaLISA as described above.

patients = settings: cited from earlier work

SMILES: CC(N)C(=O)OC(C)(C)Cc1ccc(Cl)cc1 (stereo not drawn) [A03, alaproclate]
- Aβ1-42 in the Hip [1]: lower than E4FAD Veh, but not significantly so
- sAPPα in the Hip [1]: only slightly higher
- sAPPβ in the Hip [1]: not changed
- Brain level 2 hours after the last dose ([2]; 25-day study, oral 40 mg/kg/day, n = 12): above 2000 n/g
- concentration at 2 h ([2]; E4FAD, mouse, brain, 56-day study, oral 40 mg/kg/day, n = 16, read-out: Brain level 2 hours after the last dose): ~700 ng/g
- Brain levels 2 hours after the last dose, E1 vs A03 ([2]; pilot study, SQ 10 mg/kg/day, 28 days, n = 8): slightly higher
- Y maze FA, entries into the Novel Arm C (E4FAD mice [3]): no significant differences amongst groups
- sAPPα levels in A172-E4 cells [4]: significant increase
- Body weights (E4FAD mice [5]; 56-day oral study): stayed the same
- Signs of toxicity by cage-side observation (E4FAD mice [5]; E4FAD mice, oral 56-day treatment): no signs of toxicity
- SirT2 (normalized to protein) [6]: not significantly altered
- Protein concentration in cell lysates (viability surrogate) (N2a-E4 cells): did not increase protein concentration
- Liver function in Phase 1 trial for depression (patients; human): some liver function changes were seen
- Toxicity in second clinical study (patients; human): no toxicity up to 200 mg BID
- Global scores in moderate to advanced AD patients (patients; small clinical studies): some improvements in global scores
